How the values were obtained:
Assay type in all cases: cell-based, human
MDA-MB-231 cells [1] = experiment: Mitochondrial outer membrane potential assay (MOMP); details: MDA-MB-231, 10 mM, 24 hrs
Method: (§1) One of the key hallmarks of apoptosis is the loss of mitochondrial membrane potential. To investigate that aspect we did a MOMP assay which validates our Cell-APOPercentage assay. This assay was tested on three cell lines MCF7, MDA-MB-231 & MRC-5. The top right and bottom hand quadrants of each plot represents healthy (FL2-A) and apoptotic (FL1-A) cells respectively (see FIGS. 13 to 15).
(§2) From the results obtained from MTT (IC50 values) and Cell-APOPercentage assays it was quite evident that ˜10 mM HPβCD caused cellular growth inhibition through apoptosis in cancer cells and had little or no effect in normal cells. Therefore, we selected just 10 mM HPβCD going forward as the only working concentration for HPβCD treatment. 24 hrs time point was selected (HPβCD & 10 mM H2O2) because mitochondrial membrane potential loss is an early cellular event.

MCF7 cells [2] = experiment: as above; details: MCF7, 10 mM, 24 hrs
Method: as §1, §2

MDA-MB-231 cells [3] = experiment: ROS assay; details: MDA-MB-231, 10 mM, 24 hrs
Method: (§3) To further validate the occurrence of apoptosis and to investigate the exact mechanisms if apoptosis, a ROS assay was conducted to capture the production of ROS. […] In order to be in solidarity with this fact, a ROS assay was performed in three cell lines: MCF7, MDA-MB-231 & MRC-5. Like before, HPβCD and the positive (10 mM H2O2) were treated for 24 hrs. The right hand section in each plot represents the production of ROS.

MRC-5 cells = experiment: ROS assay; details: MRC-5, 10 mM, 24 hrs
Method: as §3

MCF7 cells [4] = experiment: ROS assay; details: MCF7, 10 mM, 24 hrs
Method: as §3

MDA-MB-231 cells [5] = experiment: Caspase 3/7 assay; details: MDA-MB-231, 40 μM Plumbagin, 24 hrs
Method: (§4) The final step in apoptosis following the intrinsic pathway is the activation of executioner caspases like caspase 3 and caspase 7 […]. Therefore, to confirm that cell death was due to the mitochondrial mediated pathway of apoptosis a Caspase 3/7 assay was conducted. Caspases are activated in response to a myriad of cellular death stimuli and they dismantle the cell. Caspase 3 and caspase 7 contribute to the majority of proteolytic cleavage occurring in apoptosis. As a final step to confirm and validate apoptosis via the mitochondrial intrinsic pathway, the Caspase 3/7 assay was conducted on three cell lines: MCF7, MDA-MB-231 & HEK-293. HPβCD and positive (40 μM PL) were treated for 24 hrs. The percentage of dead/apoptotic cells are clearly indicated in specific corners of each quadrants in the above plots.

HEK-293 cells = experiment: Caspase 3/7 assay; details: HEK-293, 40 μM Plumbagin, 24 hrs
Method: as §4

MCF7 cells [6] = experiment: Caspase 3/7 assay; details: MCF7, 40 μM Plumbagin, 24 hrs
Method: as §4

MDA-MB-231 cells [7] = experiment: Cell-APOPercentage apoptosis assay; details: MDA-MB-231, 10 μM Plumbagin, 24 hrs
Method: (§5) APOPercentage assays gives a measure of overall apoptosis in the cell. Apoptosis is an early event and therefore just one time point (24 hrs) was selected and tested on four cell lines MCF7, MDA-MB-231, MRC-5 & HEK-293 cells. 10 μM Plumbagin was used a positive control as opposed to 40 μM from MTT because higher concentrations of plumbagin was way too toxic for the cells and to capture the early activity, optimal dosage was required. To confirm the growth inhibition obtained from the MTT assay was actually due to apoptosis, a Cell-APOPercentage Apoptosis assay was performed according to known methods.

MCF7 cells [8] = experiment: Cell-APOPercentage apoptosis assay; details: MCF7, 10 μM Plumbagin, 24 hrs
Method: as §5

MDA-MB-231 cells [9] = experiment: MTT growth inhibition assay; details: Homo sapiens, MDA-MB-231, 40 μM Plumbagin
Method: (§6) Cells were cultured in appropriate medium supplemented with 10% FCS, penicillin (100 U/ml), and streptomycin (100 μg/ml) (Gibco) at 5% CO2 in a 37° C. incubator.
(§7) Four different cell lines were used MCF7 (ER+). MDA-MB-231 (ER−), MRC-5 (Lung Fibroblasts) and HEK-293 (Embryonic kidney). MRC-5 and/or HEK-293 were used as control cell lines depending on availability.
(§8) In order to determine whether HPβCD has the ability to induce cancer cell death a primary screening using an MTT assay was performed. Three different time points 24 hrs.

MCF7 cells [10] = experiment: MTT growth inhibition assay; details: Homo sapiens, MCF7, 40 μM Plumbagin
Method: as §6, §7, §8

SMILES	apoptotic cells / cell death (loss of mitochondrial membrane potential) (MDA-MB-231 cells [1])	apoptotic population (loss of mitochondrial membrane potential) (MCF7 cells [2])	ROS generation (MDA-MB-231 cells [3])	ROS generation (MRC-5 cells)	ROS generation (MCF7 cells [4])	Total Apoptotic (caspase 3/7) (MDA-MB-231 cells [5])	Total Apoptotic (caspase 3/7) (HEK-293 cells)	Total Apoptotic (caspase 3/7) (HEK-293 cells; listed as PL)	Total Apoptotic (caspase 3/7) (MCF7 cells [6])	apoptosis (MDA-MB-231 cells [7])	apoptosis (MCF7 cells [8])	inhibition at 40 µM (MDA-MB-231 cells [9]; 24 hrs)	inhibition at 40 µM (MDA-MB-231 cells [9]; 48 hrs)	inhibition at 40 µM (MDA-MB-231 cells [9]; 72 hrs)	inhibition at 40 µM (MCF7 cells [10]; 24 hrs)	inhibition at 40 µM (MCF7 cells [10]; 48 hrs)	inhibition at 40 µM (MCF7 cells [10]; 72 hrs)
OO [H2O2, reference compound]	92.4%	92.1%	73%	64.1%	88.5%	–	–	–	–	–	–	–	–	–	–	–	–
CC1=CC(=O)c2c(O)cccc2C1=O [Plumbagin, reference compound]	–	–	–	–	–	80.45%	72.40%	72.4%	23.55%	~90%	~90%	~85%	~92%	~95%	~80%	~90%	~100%
